{"source": "patent US9017645B2", "about": "“Homoglutamic acid derivatives” (Piramal Imaging SA, priority 2009, dated 2015)", "test_system": "H460 cells", "assay": "Cell-competition experiment: uptake of radiolabeled glutamic acid derivative into tumor cells", "format": "cell-based, human", "conditions": "competitor 1 mM and 0.1 mM, 30 min incubation in PBS", "protocol": "FIG. 7: Biological activity of (2S)-2-Amino-5-(4-cyano-3-fluorobenzyl)hexanedioic acid in a cell-competition-experiment (H460 cells, 30 min incubation with radiolabeled glutamic acid derivative in PBS-Puffer, concentration of competitor 1 mM and 0.1 mM).\nThe ability of (2S)-2-Amino-5-(4-cyano-3-fluorobenzyl)hexanedioic acid to compete with uptake of glutamic acid derivatives into tumor cells was examined. Therefore, tumor cells were co-incubated with a radiolabeled glutamic acid derivative and (2S)-2-Amino-5-(4-cyano-3-fluorobenzyl)hexanedioic acid. This compounds was used in large excess to the tracer. Two concentrations were examined (1 mM an 0.1 mM)."}
{"smiles": "N#Cc1ccc(CC(CC[C@H](N)C(=O)O)C(=O)O)cc1F", "note": "(stereo partly drawn) [(2S)-2-Amino-5-(4-cyano-3-fluorobenzyl)hexanedioic acid]", "values": [{"measurement": "uptake of radiolabeled glutamic acid derivative into tumor cells (competition)", "value": "strongly reduces the uptake"}]}
